Results published in patent US20240415894A1, “MITOCHONDRIAL AUGMENTATION THERAPY WITH STEM CELLS ENRICHED WITH FUNCTIONAL MITOCHONDRIA” (Minovia Therapeutics Ltd., priority 2018, published 2024).

Tested on: Mouse fibroblast cells (3T3)
Experiment: ATP level in Rotenone-treated mouse fibroblast cells (ATPlite kit)
Type: cell-based
Conditions: 0.5 μM Rotenone for 4 hours; vs control cells
Procedure: Mouse fibroblast cells (104, 3T3) were either not treated (control) or treated with 0.5 μM Rotenone (Rotenone, mitochondrial complex I irreversible inhibitor, CAS number 83-79-4) for 4 hours, washed, and further treated with 0.02 mg/ml mouse placental mitochondria (Rotenone+Mitochondria) for 3 hours. The cells were washed and ATP level was determined using the Perkin Elmer ATPlite kit (FIG. 2), as previously shown in WO 2016/135723.

Structure (SMILES): C=C(C)[C@H]1Cc2c(ccc3c2O[C@@H]2COc4cc(OC)c(OC)cc4[C@@H]2C3=O)O1 [Rotenone]
- decrease of ATP levels: about 50%
